# In ChEMBL document CHEMBL1201862, “PubChem BioAssay data set” (2004):
# The source made the active and inactive calls.
# Tests used:
# [1] = target: Voltage-gated inwardly rectifying potassium channel KCNH2 (Homo sapiens, UniProt Q12809); assay: hERG protection from proarrhythmic block, potency, dose response, cell-based, thallium flux (AID 2121); type: ADME
# [2] = target: T1, Dual specificity protein phosphatase 6 (Rattus norvegicus, UniProt Q64346); assay: MKP-3 phosphatase inhibitors, primary screen, biochemical, rat enzyme, in vitro (AID 425)
# T1 sequence (Q64346 whole entry): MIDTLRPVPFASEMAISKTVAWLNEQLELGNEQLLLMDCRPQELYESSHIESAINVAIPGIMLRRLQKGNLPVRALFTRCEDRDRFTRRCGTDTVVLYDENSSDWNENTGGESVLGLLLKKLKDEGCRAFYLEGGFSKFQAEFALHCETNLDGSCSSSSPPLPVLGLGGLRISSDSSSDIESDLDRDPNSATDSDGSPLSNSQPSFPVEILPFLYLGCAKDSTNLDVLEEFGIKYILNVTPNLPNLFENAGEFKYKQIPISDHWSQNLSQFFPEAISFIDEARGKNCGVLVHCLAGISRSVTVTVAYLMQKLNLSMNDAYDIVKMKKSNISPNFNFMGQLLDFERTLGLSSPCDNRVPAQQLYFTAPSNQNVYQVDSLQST
# [3] = cells
# [4] = target: T2, Tyrosine-protein phosphatase non-receptor type 7 (Homo sapiens, UniProt P35236); assay: inhibitors of human HePTP phosphatase, […], biochemical, absorbance, leukemia target (AID 521); type: functional
# T2 sequence (P35236 whole entry): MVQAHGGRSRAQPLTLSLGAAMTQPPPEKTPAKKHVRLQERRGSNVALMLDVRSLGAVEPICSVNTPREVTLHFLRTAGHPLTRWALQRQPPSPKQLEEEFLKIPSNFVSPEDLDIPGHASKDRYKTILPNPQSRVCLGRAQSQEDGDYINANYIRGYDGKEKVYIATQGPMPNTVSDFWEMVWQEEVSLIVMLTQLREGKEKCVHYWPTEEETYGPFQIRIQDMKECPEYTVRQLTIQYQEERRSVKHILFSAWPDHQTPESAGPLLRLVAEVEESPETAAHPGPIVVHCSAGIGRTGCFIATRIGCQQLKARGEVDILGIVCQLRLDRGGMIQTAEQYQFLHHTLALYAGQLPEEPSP
# [5] = target: Major prion protein (Homo sapiens, UniProt P04156); type: functional, cell-based
# [6] = cytotoxicity toward NIH3T3 fibroblasts, dose response, counter-screen, cell-based, ATP luminescence, mouse fibroblasts (AID 2010); type: functional;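 further: cells exposed to compound for about 90 hours before reading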
# [7] = cytotoxicity in HEK-293T cells, dose response, cytotoxicity control for TCR NF-kB inhibitor project, luminescence, T-cell screen hits (AID 489026); type: functional, cell-based;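 further: cells exposed to compound about 14 hours before the viability readout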
# [8] = inhibitors of intracellular T. cruzi replication, confirmation, NIH3T3 host cells, beta-gal luminescence (AID 2044); type: functional, cell-based;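 further: intracellular parasites grown in NIH/3T3 mouse fibroblasts as host cells; luminescent beta-galactosidase reporter signal from transgenic T. cruzi replicating inside host cells; inhibitors lower the luminescence signal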
# [9] = control 3'UTR Renilla luciferase suppression, dose response, counter-screen for Shn3 inhibitor project, cell-based, Clone20-Shn3RL, cherry-picked (AID 624133); type: functional
# [10] = Shn3 3'UTR reporter inhibitors, dose response, cell-based, Clone20 osteoblasts, firefly luciferase, cherry-picked (AID 624132); type: functional;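 further: firefly luciferase luminescence from reporter carrying the Shn3 3'UTR in osteoblasts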
# [11] = target: T3, Sphingosine 1-phosphate receptor 2 (Homo sapiens, UniProt O95136); assay: Dose Response Cell Based Assay for Antagonists of the S1P2 Receptor. [Related pubchem assays: 856, 736 ]; type: functional
# T3 sequence (O95136 whole entry): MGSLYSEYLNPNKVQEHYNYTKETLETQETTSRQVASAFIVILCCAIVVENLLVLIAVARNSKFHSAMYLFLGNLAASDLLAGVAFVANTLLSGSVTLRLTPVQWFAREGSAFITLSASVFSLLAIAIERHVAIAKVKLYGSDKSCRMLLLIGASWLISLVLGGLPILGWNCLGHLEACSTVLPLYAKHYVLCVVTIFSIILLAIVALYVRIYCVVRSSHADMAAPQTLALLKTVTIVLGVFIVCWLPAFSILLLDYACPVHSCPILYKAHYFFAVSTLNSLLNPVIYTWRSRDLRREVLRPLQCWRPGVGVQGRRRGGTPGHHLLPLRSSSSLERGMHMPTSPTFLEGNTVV
# [12] = tested on: INS1; assay: beta cell apoptosis inhibitors, cytokine rescue, dose response, luminescence, retest (AID 449756); type: functional, cell-based; details: Rattus norvegicus;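 further: cell death triggered by IL-1 beta plus TNF-alpha plus IFN-gamma mixture; protective hits raise ATP signal compared with cytokine alone wells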
# [13] = HepG2 cell cytotoxicity, dose response, cytotoxicity control for Shn3 inhibitor project, CellTiter-Glo, cherry-picked (AID 624134); type: functional, cell-based
# [14] = tested on: Vero; assay: West Nile virus antiviral activity, cell-based, CPE readout (AID 1621); type: functional; details: Chlorocebus sabaeus
# [15] = target: T4, DNA repair protein RAD52 homolog (Homo sapiens, UniProt P43351); type: functional, biochemical
# T4 sequence (P43351 whole entry): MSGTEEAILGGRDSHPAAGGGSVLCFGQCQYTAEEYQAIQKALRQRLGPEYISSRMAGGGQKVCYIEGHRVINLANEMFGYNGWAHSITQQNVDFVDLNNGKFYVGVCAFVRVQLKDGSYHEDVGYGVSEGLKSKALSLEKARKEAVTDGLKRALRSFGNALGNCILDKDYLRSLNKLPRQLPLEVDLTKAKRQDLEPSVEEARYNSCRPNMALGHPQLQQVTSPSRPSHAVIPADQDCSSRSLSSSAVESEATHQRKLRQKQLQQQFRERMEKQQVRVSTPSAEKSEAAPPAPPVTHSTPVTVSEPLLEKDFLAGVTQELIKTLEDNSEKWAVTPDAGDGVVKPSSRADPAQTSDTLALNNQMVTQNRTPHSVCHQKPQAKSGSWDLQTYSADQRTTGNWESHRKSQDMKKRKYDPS
# [16] = target: T5, DNA repair and recombination protein RAD54-like (Homo sapiens, UniProt Q92698); assay: inhibitors of human RAD54 branch migration, confirmation, biochemical, fluorescence, cherry-picked samples, dose series (AID 651657); type: functional
# T5 sequence (Q92698 whole entry): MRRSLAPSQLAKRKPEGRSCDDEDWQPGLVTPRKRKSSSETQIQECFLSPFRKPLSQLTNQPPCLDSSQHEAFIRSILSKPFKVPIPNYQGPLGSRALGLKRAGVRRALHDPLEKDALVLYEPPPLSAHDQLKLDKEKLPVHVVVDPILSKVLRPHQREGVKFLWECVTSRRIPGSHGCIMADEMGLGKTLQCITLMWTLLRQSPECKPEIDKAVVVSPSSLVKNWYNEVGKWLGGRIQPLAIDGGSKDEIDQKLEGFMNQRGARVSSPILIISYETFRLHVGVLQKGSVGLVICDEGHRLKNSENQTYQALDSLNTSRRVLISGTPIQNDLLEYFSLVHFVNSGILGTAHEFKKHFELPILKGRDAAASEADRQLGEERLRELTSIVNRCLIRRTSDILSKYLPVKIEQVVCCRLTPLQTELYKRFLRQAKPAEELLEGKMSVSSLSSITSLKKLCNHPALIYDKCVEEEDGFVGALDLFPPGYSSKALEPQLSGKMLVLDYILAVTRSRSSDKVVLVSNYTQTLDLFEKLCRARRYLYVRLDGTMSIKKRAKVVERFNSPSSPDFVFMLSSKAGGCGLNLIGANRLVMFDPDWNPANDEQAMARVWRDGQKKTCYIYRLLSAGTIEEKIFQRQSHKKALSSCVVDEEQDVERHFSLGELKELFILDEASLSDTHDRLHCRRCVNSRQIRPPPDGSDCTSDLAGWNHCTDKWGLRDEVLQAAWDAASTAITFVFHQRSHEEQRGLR
# [17] = target: T6, Replicative DNA helicase DnaB (Mycobacterium tuberculosis, UniProt P9WMR3); assay: DnaB intein splicing inhibitors, dose response, biochemical, cell-free fluorescence (AID 449749); type: functional
# T6 sequence (P9WMR3 whole entry): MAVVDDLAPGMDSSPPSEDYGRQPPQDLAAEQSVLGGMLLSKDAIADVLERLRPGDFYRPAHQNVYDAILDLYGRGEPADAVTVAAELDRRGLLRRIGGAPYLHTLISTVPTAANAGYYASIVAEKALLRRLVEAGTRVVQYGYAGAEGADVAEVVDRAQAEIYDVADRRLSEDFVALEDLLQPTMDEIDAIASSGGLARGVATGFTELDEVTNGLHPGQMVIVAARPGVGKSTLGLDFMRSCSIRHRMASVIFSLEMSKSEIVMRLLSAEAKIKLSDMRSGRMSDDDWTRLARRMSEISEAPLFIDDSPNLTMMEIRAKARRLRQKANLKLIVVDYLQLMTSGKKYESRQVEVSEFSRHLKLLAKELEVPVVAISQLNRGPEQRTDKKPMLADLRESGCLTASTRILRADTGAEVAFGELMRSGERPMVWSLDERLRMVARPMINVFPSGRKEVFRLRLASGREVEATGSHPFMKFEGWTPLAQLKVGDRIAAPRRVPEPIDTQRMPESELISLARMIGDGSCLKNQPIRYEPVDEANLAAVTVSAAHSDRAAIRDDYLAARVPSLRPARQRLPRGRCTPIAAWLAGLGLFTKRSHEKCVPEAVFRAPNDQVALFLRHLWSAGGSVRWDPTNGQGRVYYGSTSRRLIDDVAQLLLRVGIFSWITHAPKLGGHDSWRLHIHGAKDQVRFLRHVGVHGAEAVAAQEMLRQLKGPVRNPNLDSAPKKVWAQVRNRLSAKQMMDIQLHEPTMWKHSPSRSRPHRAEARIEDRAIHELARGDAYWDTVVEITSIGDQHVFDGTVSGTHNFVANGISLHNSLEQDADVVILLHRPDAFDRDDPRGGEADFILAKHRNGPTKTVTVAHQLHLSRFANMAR
# [18] = target: T7, Protein RecA (Mycobacterium tuberculosis, UniProt P9WHJ3); assay: Fluorescence Cell-Free Homogeneous Dose Retest to Identify Inhibitors of RecA-Intein Splicing Activity. [Related pubchem assays (depositor defined):AID2097, AID2223, AID489010, AID492950]; type: functional
# T7 sequence (P9WHJ3 whole entry): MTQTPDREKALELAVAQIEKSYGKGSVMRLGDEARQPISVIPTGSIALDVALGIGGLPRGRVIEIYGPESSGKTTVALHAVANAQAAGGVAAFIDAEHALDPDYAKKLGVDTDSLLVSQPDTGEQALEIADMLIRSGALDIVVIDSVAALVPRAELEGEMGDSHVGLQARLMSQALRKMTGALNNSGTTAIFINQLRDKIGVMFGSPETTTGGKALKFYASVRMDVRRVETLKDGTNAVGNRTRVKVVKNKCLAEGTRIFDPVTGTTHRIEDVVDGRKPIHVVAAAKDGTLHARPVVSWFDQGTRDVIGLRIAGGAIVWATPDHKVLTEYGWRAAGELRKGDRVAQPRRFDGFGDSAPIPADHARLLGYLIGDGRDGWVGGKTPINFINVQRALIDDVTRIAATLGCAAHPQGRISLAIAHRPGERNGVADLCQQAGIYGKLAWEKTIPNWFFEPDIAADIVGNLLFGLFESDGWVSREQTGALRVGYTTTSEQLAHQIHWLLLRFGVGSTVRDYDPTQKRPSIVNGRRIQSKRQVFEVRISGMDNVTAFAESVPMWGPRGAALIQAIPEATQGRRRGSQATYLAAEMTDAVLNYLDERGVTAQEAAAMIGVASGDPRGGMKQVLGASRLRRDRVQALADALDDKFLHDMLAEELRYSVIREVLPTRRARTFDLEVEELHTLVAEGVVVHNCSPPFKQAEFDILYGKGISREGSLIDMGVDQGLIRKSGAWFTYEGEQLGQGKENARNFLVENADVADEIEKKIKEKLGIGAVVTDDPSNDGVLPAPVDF
# [19] = tested on: Vero; assay: cells; type: functional; details: Chlorocebus sabaeus
# [20] = target: T3, Sphingosine 1-phosphate receptor 2; assay: Dose Response Cell Based Assay for Agonists of the S1P2 Receptor. [Related pubchem assays: 729, 736, 843 ]; type: functional
# [21] = target: T1, Dual specificity protein phosphatase 6
# [22] = target: T8, Bcl-2-like protein 10 (Homo sapiens, UniProt Q9HD36); assay: displacers of TR3 peptide from Bcl-B, primary screen, selectivity assay for Bfl-1 inhibitor project, biochemical, fluorescence polarization, FITC-TR3 peptide (AID 748);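 further: fluorescence polarization from a fluorescein-labelled TR3 peptide binding purified Bcl-B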
# T8 sequence (Q9HD36 whole entry): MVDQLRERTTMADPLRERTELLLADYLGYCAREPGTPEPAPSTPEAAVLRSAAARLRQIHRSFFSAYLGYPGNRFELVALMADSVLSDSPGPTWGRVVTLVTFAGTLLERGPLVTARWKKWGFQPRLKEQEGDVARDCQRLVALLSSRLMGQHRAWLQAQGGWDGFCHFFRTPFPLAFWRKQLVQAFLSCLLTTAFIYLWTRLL
# [23] = target: Cytochrome P450 2C19 (Homo sapiens, UniProt P33261); assay: Cytochrome panel assay with activity outcomes. Panel member name: p450-cyp2c19 Compounds with AC50 equal or less than 10 uM are considered active; type: functional; details: read-out: AC50
# Sequence of Cytochrome P450 2C19 (P33261 whole entry): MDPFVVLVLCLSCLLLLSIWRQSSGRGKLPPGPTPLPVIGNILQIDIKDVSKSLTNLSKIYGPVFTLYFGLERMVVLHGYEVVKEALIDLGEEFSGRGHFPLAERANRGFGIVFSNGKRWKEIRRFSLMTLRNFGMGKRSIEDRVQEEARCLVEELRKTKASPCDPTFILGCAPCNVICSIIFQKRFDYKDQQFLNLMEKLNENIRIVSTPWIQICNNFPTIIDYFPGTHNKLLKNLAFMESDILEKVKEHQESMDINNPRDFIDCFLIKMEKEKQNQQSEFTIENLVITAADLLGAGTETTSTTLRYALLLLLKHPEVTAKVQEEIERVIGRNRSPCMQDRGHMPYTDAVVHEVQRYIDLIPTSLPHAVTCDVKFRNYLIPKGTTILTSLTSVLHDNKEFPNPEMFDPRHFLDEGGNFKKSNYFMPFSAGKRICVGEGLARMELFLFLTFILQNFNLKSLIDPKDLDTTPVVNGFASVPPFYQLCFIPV
# [24] = target: T2, Tyrosine-protein phosphatase non-receptor type 7; type: functional
# [25] = target: Glyceraldehyde-3-phosphate dehydrogenase (Homo sapiens, UniProt P04406)
# Sequence of Glyceraldehyde-3-phosphate dehydrogenase (P04406 whole entry): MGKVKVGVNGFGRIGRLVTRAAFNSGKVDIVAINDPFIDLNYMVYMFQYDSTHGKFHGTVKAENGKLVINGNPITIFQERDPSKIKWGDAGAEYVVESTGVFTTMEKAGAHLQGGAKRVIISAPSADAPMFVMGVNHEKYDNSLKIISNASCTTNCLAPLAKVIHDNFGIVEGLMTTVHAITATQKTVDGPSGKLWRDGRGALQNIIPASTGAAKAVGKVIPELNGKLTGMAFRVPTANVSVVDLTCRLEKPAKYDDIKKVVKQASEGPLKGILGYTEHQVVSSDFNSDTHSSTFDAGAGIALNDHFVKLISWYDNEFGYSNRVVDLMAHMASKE
# [26] = target: T1, Dual specificity protein phosphatase 6; type: functional
# Sequence of Voltage-gated inwardly rectifying potassium channel KCNH2 (Q12809 whole entry): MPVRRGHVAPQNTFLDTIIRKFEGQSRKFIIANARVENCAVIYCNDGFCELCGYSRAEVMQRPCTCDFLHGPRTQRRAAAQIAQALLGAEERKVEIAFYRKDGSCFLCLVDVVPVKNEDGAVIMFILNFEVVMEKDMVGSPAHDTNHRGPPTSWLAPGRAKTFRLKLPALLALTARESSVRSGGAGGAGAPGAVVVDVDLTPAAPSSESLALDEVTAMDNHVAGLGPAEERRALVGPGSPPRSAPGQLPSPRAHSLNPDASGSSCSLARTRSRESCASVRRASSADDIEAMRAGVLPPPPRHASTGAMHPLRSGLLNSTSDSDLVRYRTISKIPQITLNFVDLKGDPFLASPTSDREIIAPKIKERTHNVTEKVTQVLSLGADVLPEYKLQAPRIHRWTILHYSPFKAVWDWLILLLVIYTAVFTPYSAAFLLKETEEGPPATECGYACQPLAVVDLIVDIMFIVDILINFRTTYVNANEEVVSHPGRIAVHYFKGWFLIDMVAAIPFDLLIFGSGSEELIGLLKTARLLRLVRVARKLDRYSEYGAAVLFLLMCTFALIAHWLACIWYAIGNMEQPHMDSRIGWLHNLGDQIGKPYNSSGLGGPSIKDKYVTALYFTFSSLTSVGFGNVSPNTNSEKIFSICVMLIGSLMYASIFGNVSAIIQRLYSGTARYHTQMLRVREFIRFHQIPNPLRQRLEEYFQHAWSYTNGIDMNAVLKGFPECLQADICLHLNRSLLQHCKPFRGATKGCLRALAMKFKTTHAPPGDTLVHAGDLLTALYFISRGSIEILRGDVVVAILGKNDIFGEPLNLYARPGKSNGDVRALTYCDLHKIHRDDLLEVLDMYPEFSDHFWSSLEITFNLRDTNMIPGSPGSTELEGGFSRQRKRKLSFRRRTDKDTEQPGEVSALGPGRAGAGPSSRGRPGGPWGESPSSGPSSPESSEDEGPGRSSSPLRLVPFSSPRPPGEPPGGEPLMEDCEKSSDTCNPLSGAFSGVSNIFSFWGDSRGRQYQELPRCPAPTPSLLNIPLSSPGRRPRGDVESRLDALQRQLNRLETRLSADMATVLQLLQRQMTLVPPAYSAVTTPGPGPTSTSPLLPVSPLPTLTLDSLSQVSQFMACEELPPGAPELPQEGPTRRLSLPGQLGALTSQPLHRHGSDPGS
structure (smiles),measurement,setting,value
COc1ccc(-c2csc(NC(=S)NC(=O)c3cccs3)n2)cc1Br,EC50,[1],1.41 µM (active)
NC(=O)CSc1nnc2n(-c3ccccc3)c(=O)c3c4c(sc3n12)CCCCC4,IC50,[2],> 10 µM (not active)
same,IC50,[3],130 µM (inactive)
same,IC50,[4],2.54 µM (active)
same,IC50,[5],4.66 µM (active)
Nc1nc(Cl)cc(N2CCC(c3cc(-c4ccc(Cl)cc4)[nH]n3)CC2)n1,EC50,[6],7.5 µM (active)
same,IC50,[7],64.3 µM (inactive)
same,EC50,[8],2.13 µM (active)
same,AC50,[9],11.1 µM (active)
same,AC50,[10],2.43 µM (active)
same,IC50,[11],7.01 µM (active)
same,AC50,[12],4.41 µM (active)
same,AC50,[13],19.5 µM (active)
CCCN(CCC)CCCN=C(S)Nc1ccc2nc(N3CCCC3)cc(C)c2c1,EC50,[6],10.1 µM (active)
same,EC50,[8],1.96 µM (active)
same,IC50,[14],25.4 µM (active)
same,AC50,[15],9.06 µM (active)
same,AC50,[16],19.4 µM (active)
Nc1c(C(=O)NCCCc2ccccc2)c2nc3ccccc3nc2n1Cc1cccs1,EC50,[6],> 60 µM (not active)
same,EC50,[8],2.17 µM (active)
same,AC50,[17],29.3 µM (active)
same,EC50,[18],3.3 µM (active)
same,CC50,[19],> 25 µM (active)
same,EC50,[20],2.2 µM (active)
COC(=O)c1sc2cc(C(F)(F)F)cnc2c1-c1ccccc1,IC50,[11],> 30 µM (not active)
Cc1ccc(C)n1C(Cc1ccccc1)C(=O)O (configuration not stated),IC50,[21],> 100 µM (inactive)
same,IC50,[2],> 10 µM (not active)
same,IC50,[22],< 0.195 µM (inactive)
same,AC50,[23],22.4 µM (inconclusive)
same,IC50,[24],28 µM (active)
same,IC50,[25],> 100 µM (not active)
same,IC50,[26],> 100 µM (inactive)
